Eight compounds from BindingDB's records for doi:10.1021/jm960455s (Bristol-Myers Squibb Pharmaceutical Research Institute, 1997) can be followed below.

Experiment [1] can be described thus: Effective concentration for stimulation of platelet aggregation.
Experiment [2] in a line: Concentration of compound required to inhibit agonist (SFLLRNP-NH2, at 3 uM) induced platelet aggregation by 50%.
Assay in experiment [3]: as above
This is another data set of the same source.

Non-standard residues stand in square brackets, D forms with d. Residues, ends and D or L forms follow the SMILES beside them. *: point of attachment. Phe(4-guanidino) = N=C(N)Nc1ccc(C[CH](N)C(=O)O)cc1; Phe(4-F) = N[CH](Cc1ccc(F)cc1)C(=O)O; 2Nal = N[C@@H](Cc1ccc2ccccc2c1)C(=O)O; Benzoyl(4-Cl) = O=C(c1ccc(Cl)cc1)*; X5 = O=C(c1cc2ccccc2[nH]1)*; βAla = NCCC(=O)O

The term EC50 denotes the concentration that produces a half-maximal response. The low end stands for an effect from little substance, the high end for a need for much substance. As usually defined, the IC50 is the midpoint of a concentration-inhibition curve. A higher IC50 goes with lower potency.

`CC(C)CC(NC(=O)C(Cc1ccc(N=C(N)N)cc1)NC(=O)C(Cc1ccc(F)cc1)NC(=O)c1cc2ccccc2[nH]1)C(=O)NC(CCCNC(=N)N)C(N)=O` (stereo not drawn) [1H-Indole-2-carboxylic acid [1-[1-[1-(1-carbamoyl-4-guanidino-butylcarbamoyl)-3-methyl-butylcarbamoyl]-2-(4-guanidino-phenyl)-ethylcarbamoyl]-2-(4-fluoro-phenyl)-ethyl]-amide] (X5-[Phe(4-F)][Phe(4-guanidino)]LR-NH2; configuration not given here): the EC50 in experiment [1] was determined as 1800 nM.

For the compound `CC(=O)NCCC(=O)N[C@@H](Cc1ccc(F)cc1)C(=O)N[C@@H](Cc1ccc2ccccc2c1)C(=O)N[C@@H](CC(C)C)C(=O)N[C@@H](CCCN=C(N)N)C(N)=O` [2-{(R)-2-[2-(3-Acetylamino-propionylamino)-3-(4-fluoro-phenyl)-propionylamino]-3-naphthalen-2-yl-propionylamino}-4-methyl-pentanoic acid (1-carbamoyl-4-guanidino-butyl)-amide] (Ac-[βAla][Phe(4-F)][2Nal]LR-NH2), the response in experiment [1] was half-maximal at 270 nM (EC50).

In turn, `CC(=O)N(C(=O)C=Cc1ccccc1)C(Cc1ccc(F)cc1)C(=O)NC(=O)NCCCC(NC(=O)C(CC(C)C)NC(=O)C(N)CCCNC(=N)N)C(=O)O` (stereo not drawn) [5-{3-[2-{Acetyl-[(E)-(3-phenyl-acryloyl)]-amino}-3-(4-fluoro-phenyl)-propionyl]-ureido}-2-[2-(2-amino-5-guanidino-pentanoylamino)-4-methyl-pentanoylamino]-pentanoic acid] returned a concentration for a half-maximal effect (EC50) in experiment [1] of 67000 nM.

As for `CC(=O)N(C(=O)C=Cc1ccccc1)C(Cc1ccc(F)cc1)C(=O)NC(Cc1ccc(N)cc1)C(=O)NC(CC(C)C)C(=O)NC(CCCNC(=N)N)C(N)=O` (stereo not drawn) [2-[2-[2-{Acetyl-[(E)-(3-phenyl-acryloyl)]-amino}-3-(4-fluoro-phenyl)-propionylamino]-3-(4-amino-phenyl)-propionylamino]-4-methyl-pentanoic acid (1-carbamoyl-4-guanidino-butyl)-amide], the EC50 in experiment [1] was 60000 nM.

For the compound `CC(=O)N(C(=O)c1ccc(-c2ccccc2)cc1)C(Cc1ccc(F)cc1)C(=O)NC(Cc1ccc(N=C(N)N)cc1)C(=O)NC(CC(C)C)C(=O)NC(CCCNC(=N)N)C(N)=O` (stereo not drawn) [Biphenyl-4-carboxylic acid acetyl-[1-[1-[1-(1-carbamoyl-4-guanidino-butylcarbamoyl)-3-methyl-butylcarbamoyl]-2-(4-guanidino-phenyl)-ethylcarbamoyl]-2-(4-fluoro-phenyl)-ethyl]-amide], the 50% inhibitory concentration (IC50) in experiment [2] worked out at 430 nM.

In the case of `CC(=O)N(C(=O)C=Cc1cccc(Cl)c1)C(Cc1ccc(F)cc1)C(=O)NC(Cc1ccc(N=C(N)N)cc1)C(=O)NC(CC(C)C)C(=O)NC(CCCNC(=N)N)C(N)=O` (stereo not drawn) [2-[2-[2-{Acetyl-[(E)-3-(3-chloro-phenyl)-acryloyl]-amino}-3-(4-fluoro-phenyl)-propionylamino]-3-(4-guanidino-phenyl)-propionylamino]-4-methyl-pentanoic acid (1-carbamoyl-4-guanidino-butyl)-amide], the IC50 in experiment [3] turned out to be 80 nM.

On to `COc1ccc(C[C@H](NC(=O)[C@@H](N)CO)C(=O)N[C@@H](CC(C)C)C(=O)N[C@@H](CC(C)C)C(=O)N[C@@H](CCCN=C(N)N)C(N)=O)cc1`, for which, in experiment [1], the concentration for a half-maximal effect (EC50) worked out at 720 nM.

Compound `CC(C)CC(NC(=O)C(Cc1ccc(N=C(N)N)cc1)NC(=O)C(Cc1ccc(F)cc1)NC(=O)c1ccc(Cl)cc1)C(=O)NC(CCCNC(=N)N)C(N)=O` (stereo not drawn) [N-[1-[1-[1-(1-Carbamoyl-4-guanidino-butylcarbamoyl)-3-methyl-butylcarbamoyl]-2-(4-guanidino-phenyl)-ethylcarbamoyl]-2-(4-fluoro-phenyl)-ethyl]-4-chloro-benzamide] ({Benzoyl(4-Cl)}-[Phe(4-F)][Phe(4-guanidino)]LR-NH2; configuration not given here) returned an EC50 in experiment [1] of 3700 nM.
